Reference: article PMC4849045, “Hepatoprotective Limonoids from Andiroba (Carapa guianensis)” (International Journal of Molecular Sciences, 2016)
Read-outs that look alike come from different tables or passages of the source.

Key:
[1] = system: LPS-activated NO production in mouse peritoneal macrophages; experiment: LPS-induced NO production in mouse peritoneal macrophages; assay type: cell-based; conditions: Peritoneal macrophage; for inhibition at 3 µM / inhibition at 10 µM / inhibition at 30 µM / inhibition at 100 µM: read-out: Inhibition (%) of LPS-activated NO production; for IC50: read-out: IC50, inhibition of LPS-activated NO production
Procedure: The effects of limonoids (1–17) on NO production were examined to provide an estimation of macrophage activation levels in LPS-treated mouse peritoneal macrophages.
Assay for NO production in TGC-induced mouse peritoneal macrophages was performed as described previously. N^G-Monomethyl-L-arginine (L-NMMA) and caffeic acid phenethyl ester (CAPE) were used as reference compounds [33, 36].

L929 cells = experiment: TNF-α-induced cytotoxicity in L929 cells (MTT assay); assay type: cell-based; conditions: Mus musculus; for inhibition at 1 µM / inhibition at 3 µM / inhibition at 10 µM / inhibition at 30 µM: read-out: Inhibition (%) of TNF-α-induced cytotoxicity; for IC50: read-out: IC50, inhibition of TNF-α-induced decrease in cell viability
Procedure: The effects of the limonoids (1–17) on the sensitivity of hepatocytes to TNF-α were assessed by measuring TNF-α-induced decreases in the viability of L929 cells, a TNF-α-sensitive cell line, by using the MTT assay. In the absence of a test sample, the cells incubated with 1 ng/mL TNF-α for 44 h were compared with those not incubated with TNF-α.
Assay for the TNF-α-induced cytotoxicity in L929 cells was performed as described previously. Silybin was used as a reference compound [36].

[2] = system: primary cultured mouse hepatocytes; experiment: D-GalN-induced cytotoxicity in primary cultured mouse hepatocytes (MTT assay); conditions: Hepatocyte, read-out: Inhibition (%) of D-GalN-induced cytotoxicity
Procedure: Assay for the D-GalN-induced cytotoxicity in primary cultured mouse hepatocytes was performed as described previously [33, 35, 36].

[3] = Cell viability of LPS-treated mouse peritoneal macrophages (MTT assay); assay type: cell-based
[4] = Mus musculus, 3 µM, mean ± S.E.M. (n = 4)
[5] = Mus musculus, 10 µM, mean ± S.E.M. (n = 4)
[6] = Mus musculus, 30 µM, mean ± S.E.M. (n = 4)
[7] = Mus musculus, 100 µM, mean ± S.E.M. (n = 4)
[8] = L929, 1 µM, 1 ng/mL TNF-α, 44 h, mean ± S.E.M. (n = 4)
[9] = L929, 3 µM, 1 ng/mL TNF-α, 44 h, mean ± S.E.M. (n = 4)
[10] = L929, 10 µM, 1 ng/mL TNF-α, 44 h, mean ± S.E.M. (n = 4)
[11] = L929, 30 µM, 1 ng/mL TNF-α, 44 h, mean ± S.E.M. (n = 4)
[12] = LPS-treated TGC-induced mouse peritoneal macrophages, 3 µM, mean ± S.E.M. (n = 4), read-out: cell viability (%) in MTT assay (values in parentheses) (converted)
[13] = LPS-treated TGC-induced mouse peritoneal macrophages, 10 µM, mean ± S.E.M. (n = 4), read-out: cell viability (%) in MTT assay (values in parentheses) (converted)
[14] = LPS-treated TGC-induced mouse peritoneal macrophages, 30 µM, mean ± S.E.M. (n = 4), read-out: cell viability (%) in MTT assay (values in parentheses) (converted)
[15] = LPS-treated TGC-induced mouse peritoneal macrophages, 100 µM, mean ± S.E.M. (n = 4), # = cytotoxic effects were observed, read-out: cell viability (%) in MTT assay (values in parentheses) (converted)
[16] = 3 µM, mean ± S.E.M. (n = 4), read-out: cell viability (%) in MTT assay (values in parentheses) (converted)
[17] = 10 µM, mean ± S.E.M. (n = 4), read-out: cell viability (%) in MTT assay (values in parentheses) (converted)
[18] = 30 µM, mean ± S.E.M. (n = 4), read-out: cell viability (%) in MTT assay (values in parentheses) (converted)
[19] = 100 µM, mean ± S.E.M. (n = 4), # = cytotoxic effects were observed, read-out: cell viability (%) in MTT assay (values in parentheses) (converted)
[20] = L929 cells, 1 ng/mL TNF-α, 44 h

| IC50 ([1]; mouse peritoneal macrophages) | SMILES | inhibition at 3 µM [1, 4] | inhibition at 10 µM [1, 5] | inhibition at 30 µM [1, 6] | inhibition at 100 µM [1, 7] | inhibition at 3 µM (L929 cells; [9]) | inhibition at 10 µM (L929 cells; [10]) | inhibition at 30 µM (L929 cells; [11]) | inhibition at 3 µM [2] | inhibition at 10 µM [2] | inhibition at 30 µM [2] | inhibition at 100 µM [2] | viability at 3 µM [3, 12] | viability at 10 µM [3, 13] | viability at 30 µM [3, 14] | viability at 100 µM [3, 15] | IC50 ([1]; Mus musculus) | inhibition at 3 µM ([1]; Mus musculus) | inhibition at 10 µM ([1]; Mus musculus) | inhibition at 30 µM ([1]; Mus musculus) | other results |
| --- | --- | --- | --- | --- | --- | --- | --- | --- | --- | --- | --- | --- | --- | --- | --- | --- | --- | --- | --- | --- | --- |
| 9.4 µM | CC(=O)O[C@@H]1C2C(C)(C)C(=O)C=C[C@]2(C)C2CC[C@@]3(C)[C@H](c4ccoc4)OC(=O)[C@H]4O[C@]43[C@]2(C)[C@@H]1O (stereo partly shown) [compound 5, andirolide H] | 5.8 ± 6.1% | 63.9 ± 3% | 97.2 ± 0.9% | 99.7 ± 0.5% | -0.7 ± 1.2% | 7.6 ± 1.1% | 39.2 ± 1.7% | -6.2 ± 2.6% | -9 ± 0.5% | -9.2 ± 0.8% | -0.6 ± 0.8% | 99.8% | 104% | 109% | 4.9% |  |  |  |  | inhibition at 1 µM (L929 cells; [8]): -6.6 ± 3.6% |
|  | CC(=O)O[C@@H]1CC2C(C)(C)C(=O)C=C[C@]2(C)C2CC[C@]3(C)C(=CC(=O)[C@@]3(O)c3ccoc3)[C@@]21C (stereo partly drawn) [compound 9, 17β-hydroxyazadiradione] |  |  |  |  |  |  |  | 15.3 ± 2.3% | -4.1 ± 1.2% | -7.5 ± 1.4% | -7.5 ± 4% |  |  |  |  | 20.3 µM | -10.4 ± 6.8% | 9.4 ± 7.1% | 65.1 ± 4.5% | inhibition at 100 µM ([1]; Mus musculus): 97.4 ± 0.7%; inhibition at 1 µM (L929 cells; L929, 44 h): 14.1 ± 3.4%; inhibition at 3 µM (L929 cells; L929, 44 h): 23.9 ± 3.9%; inhibition at 10 µM (L929 cells; L929, 44 h): 64 ± 3.3%; inhibition at 30 µM (L929 cells; L929, 44 h): 91.3 ± 8.2%; IC50 (L929 cells; [20]): 6.9 µM; viability at 3 µM [3]: 95.4%; viability at 10 µM [3]: 94.4 ± 14.1%; viability at 30 µM [3]: 94.8%; viability at 100 µM [3]: 84.8% |
| > 100 µM | CCC(C)C(=O)OC1C2(OC(C)=O)CC3(O)C4=CC(=O)OC(c5ccoc5)C4(C)CCC3C(C)(C2=O)C(CC(=O)OC)C1(C)C (stereo not shown) [compound 10, Carapanolide C] | 4.2 ± 8.8% | 20.8 ± 5% | 20.2 ± 4.9% | 13.2 ± 1.9% | 14.2 ± 3.2% | 27.7 ± 4.3% | 54.5 ± 5.5% | 8 ± 4.3% | 3.4 ± 4.2% | 6.7 ± 2.1% | -7.7 ± 4.4% | 96% | 98.9% | 91.8% | 80% |  |  |  |  | inhibition at 1 µM (L929 cells; [8]): 4.9 ± 2.1%; IC50 (L929 cells; [20]): 27 µM |
|  | CCC(=O)OC1C2(O)C(OC(C)=O)C3(C)CC24OC2(C)OC15C1CC(=O)OC(c6ccoc6)C1(C)C(OC(C)=O)C(O)C5(O2)C4(C)C3CC(=O)OC (stereo not shown) [compound 13, Carapanolide M] |  |  |  |  | -1.5 ± 7.1% | 7 ± 4.4% | -5.1 ± 6.2% | -7 ± 0.5% | -7.3 ± 0.7% | 1 ± 0.4% | -9.9 ± 1% |  |  |  |  | 41.6 µM | -1.1 ± 2.7% | 3.2 ± 2.8% | 30.3 ± 3.1% | inhibition at 100 µM ([1]; Mus musculus): 85.1 ± 1.5%; viability at 3 µM [3, 16]: 99.2%; viability at 10 µM [3, 17]: 95.1%; viability at 30 µM [3, 18]: 94.2%; viability at 100 µM [3, 19]: 112% |
|  | CCC(=O)OC1C2(O)C(OC(C)=O)C3(C)CC24OC2(C)OC15C1CC(=O)OC(c6ccoc6)C1(C)C(OC(C)=O)CC5(O2)C4(C)C3C(OC(C)=O)C(=O)OC (stereo not shown) [compound 14, Carapanolide Q] |  |  |  |  | 8.6 ± 4.4% | 1.3 ± 4.2% | 9.2 ± 2.5% | 2.7 ± 1.9% | -3.5 ± 2.9% | -2.5 ± 2.1% | -6.2 ± 1.7% | 99.8% | 96.3% | 95.5% | 116% | 38 µM | 1.9 ± 0.7% | 14.4 ± 2.2% | 44.3 ± 1.1% | inhibition at 100 µM ([1]; Mus musculus): 75.3 ± 3.5% |
|  | CCC(=O)OC1C2(OC(C)=O)C(OC(C)=O)C3(C)CC24OC2(C)OC15C(CC(=O)OC)C1(C)CC(c6occc6C1=O)C5(O2)C41COC(=O)CC31 (stereo not shown) [compound 16, guianolide A] |  |  |  |  | -6.2 ± 5.2% | -4.5 ± 1.9% | -7.3 ± 3% | 9.2 ± 4.2% | 11 ± 5.3% | 9.8 ± 2.8% | 23.5 ± 3.5% | 96.9% | 102% | 98.7% | 106% | 77.9 µM | 1.9 ± 3.2% | 3.2 ± 1.4% | 12.7 ± 1.6% | inhibition at 100 µM ([1]; Mus musculus): 71.3 ± 3.2% |
| > 100 µM | COC(=O)CC1C(C)C(=O)C2(CC3(O)C4CC(=O)OC(c5ccoc5)C4(C)CCC3(O)O2)C(OC(=O)C(C)C)C1(C)C (stereo not shown) [compound 17, carapanolide A] | -0.6 ± 2.1% | 1.2 ± 2% | 41.1 ± 1% | 4.9 ± 1.8% | 8.8 ± 6.5% | 21.5 ± 5.5% | 58.2 ± 4.7% | -6.8 ± 1.2% | -8.3 ± 0.7% | -4.5 ± 0.6% | -7 ± 0.6% | 103% | 104% | 110% | 91.3% |  |  |  |  | IC50 (L929 cells; [20]): 25.3 µM |

| SMILES | IC50 ([1]; mouse peritoneal macrophages) | inhibition at 3 µM [1, 4] | inhibition at 10 µM [1, 5] | inhibition at 30 µM [1, 6] | inhibition at 100 µM [1, 7] | inhibition at 3 µM (L929 cells; [9]) | inhibition at 10 µM (L929 cells; [10]) | inhibition at 30 µM (L929 cells; [11]) | inhibition at 3 µM [2] | inhibition at 10 µM [2] | inhibition at 30 µM [2] | inhibition at 100 µM [2] | viability at 3 µM [3, 12] | viability at 10 µM [3, 13] | viability at 30 µM [3, 14] | viability at 100 µM [3, 15] | IC50 ([1]; Mus musculus) | inhibition at 3 µM ([1]; Mus musculus) | inhibition at 10 µM ([1]; Mus musculus) | inhibition at 30 µM ([1]; Mus musculus) | other results |
| --- | --- | --- | --- | --- | --- | --- | --- | --- | --- | --- | --- | --- | --- | --- | --- | --- | --- | --- | --- | --- | --- |
| CC(=O)O[C@@H]1C[C@H]2C(C)(C)C(=O)C=C[C@]2(C)[C@H]2CC[C@@]3(C)[C@H](c4ccoc4)C(=O)[C@H]4O[C@]43[C@@]21C [compound 8, epoxyazadiradione] | 8.2 µM | 10.5 ± 0.9% | 56 ± 4% | 103 ± 4% | 112.3 ± 0.7% |  |  |  | -3.1 ± 8.9% | -2.2 ± 2.5% | -10.8 ± 0.6% | -11.9 ± 0.3% |  |  |  |  |  |  |  |  | IC50 (L929 cells; L929, 44 h): 10.2 µM; inhibition at 3 µM (L929 cells; L929, 44 h): 13.7 ± 3.9%; inhibition at 10 µM (L929 cells; L929, 44 h): 39.1 ± 6.5%; inhibition at 30 µM (L929 cells; L929, 44 h): 91.5 ± 11.4%; viability at 3 µM [3, 16]: 99.6%; viability at 10 µM [3, 17]: 94.8%; viability at 30 µM [3, 18]: 81.9%; viability at 100 µM [3, 19]: 10% |
| COC(=O)C(OC(C)=O)C1C2(C)CC34OC5(C)OC6(C7CC(=O)OC(c8ccoc8)C7(C)C(OC(C)=O)C(O)C6(O5)C13C)C(OC(=O)C(C)C)C4(O)C2OC(C)=O (stereo not shown) [compound 15, Carapanolide O] | 46 µM | -2.5 ± 5.4% | 14.7 ± 8.2% | 6.9 ± 5% | 102 ± 3.2% |  |  |  | 7.5 ± 3.9% | -5.3 ± 5.6% | -5.2 ± 3.9% | -2.1 ± 1.7% |  |  |  |  |  |  |  |  | inhibition at 3 µM (L929 cells; L929, 44 h): 6.3 ± 4.3%; inhibition at 10 µM (L929 cells; L929, 44 h): 1 ± 6.4%; inhibition at 30 µM (L929 cells; L929, 44 h): 1.5 ± 4.1%; viability at 3 µM [3, 16]: 104%; viability at 10 µM [3, 17]: 108%; viability at 30 µM [3, 18]: 107%; viability at 100 µM [3, 19]: 109% |
